{"source": "PubChem BioAssay AID1963986", "about": "(Molecular Pharmacology Branch, DTP, NCI, 2024);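 also: spheroids exposed to compound for 7 days before viability read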;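 as to viability, T/C: 100% = DMSO vehicle-treated spheroids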", "tested_on": "171881-019-R-J1-PDC tumor spheroid viability", "experiment": "Anticancer human tumor 171881-019-R-J1-PDC patient-derived invasive breast carcinoma cell line growth inhibition [PI3K]", "conditions": "spheroids with HUVEC and MSC; for IC50: curve of first compound; for viability, T/C: stronger effect = lower value", "outline": "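Targeted small molecules plus PI3K inhibitors, half-log dose series from Cmax (default top 10 microM), were applied to heterotypic spheroids of cancer cells with HUVEC and MSCs. Viability indicated growth inhibition.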", "key": {"[1]": {"conditions": "second compound 0.0316 µM, first compound 0.0316 µM"}, "[2]": {"conditions": "second compound 0.0316 µM, first compound 0.1 µM"}, "[3]": {"conditions": "second compound 0.0316 µM, first compound 0.316 µM"}, "[4]": {"conditions": "second compound 0.0316 µM, first compound 1 µM"}, "[5]": {"conditions": "second compound 0.0316 µM, first compound 3.16 µM"}, "[6]": {"conditions": "second compound 0.0316 µM, first compound 10 µM"}, "[7]": {"conditions": "second compound 0.1 µM, first compound 0.0316 µM"}, "[8]": {"conditions": "second compound 0.1 µM, first compound 0.1 µM"}, "[9]": {"conditions": "second compound 0.1 µM, first compound 0.316 µM"}, "[10]": {"conditions": "second compound 0.1 µM, first compound 1 µM"}, "[11]": {"conditions": "second compound 0.1 µM, first compound 3.16 µM"}, "[12]": {"conditions": "second compound 0.1 µM, first compound 10 µM"}, "[13]": {"conditions": "second compound 0.316 µM, first compound 0.0316 µM"}, "[14]": {"conditions": "second compound 0.316 µM, first compound 0.1 µM"}, "[15]": {"conditions": "second compound 0.316 µM, first compound 0.316 µM"}, "[16]": {"conditions": "second compound 0.316 µM, first compound 1 µM"}, "[17]": {"conditions": "second compound 0.316 µM, first compound 3.16 µM"}, "[18]": {"conditions": "second compound 0.316 µM, first compound 10 µM"}, "[19]": {"conditions": "second compound 1 µM, first compound 0.0316 µM"}, "[20]": {"conditions": "second compound 1 µM, first compound 0.1 µM"}, "[21]": {"conditions": "second compound 1 µM, first compound 0.316 µM"}, "[22]": {"conditions": "second compound 1 µM, first compound 1 µM"}, "[23]": {"conditions": "second compound 1 µM, first compound 3.16 µM"}, "[24]": {"conditions": "second compound 1 µM, first compound 10 µM"}}}
{"smiles": "Cn1nccc1Nc1nccc(-c2ccn(C(CO)c3ccc(Cl)c(F)c3)c(=O)c2)n1", "note": "(centres undefined) + CC(Nc1ncnc2nc[nH]c12)c1cc2cccc(Cl)c2c(=O)n1-c1ccccc1", "values": [{"measurement": "IC50", "setting": "second compound 0.0316 µM", "result": 544, "unit": "nM"}, {"measurement": "IC50", "setting": "second compound 0.1 µM", "result": 472, "unit": "nM"}, {"measurement": "IC50", "setting": "second compound 0.316 µM", "result": 471, "unit": "nM"}, {"measurement": "IC50", "setting": "second compound 1 µM", "result": 345, "unit": "nM"}, {"measurement": "IC50", "setting": "second compound 3.16 µM", "result": 168, "unit": "nM"}, {"measurement": "IC50", "setting": "second compound 10 µM", "result": 35.5, "unit": "nM"}, {"measurement": "viability, T/C", "setting": "[1]", "result": 94, "unit": "%"}, {"measurement": "viability, T/C", "setting": "[2]", "result": 84, "unit": "%"}, {"measurement": "viability, T/C", "setting": "[3]", "result": 62.2, "unit": "%"}, {"measurement": "viability, T/C", "setting": "[4]", "result": 36.6, "unit": "%"}, {"measurement": "viability, T/C", "setting": "[5]", "result": 24, "unit": "%"}, {"measurement": "viability, T/C", "setting": "[6]", "result": 20.7, "unit": "%"}, {"measurement": "viability, T/C", "setting": "[7]", "result": 91.1, "unit": "%"}, {"measurement": "viability, T/C", "setting": "[8]", "result": 88.1, "unit": "%"}, {"measurement": "viability, T/C", "setting": "[9]", "result": 54.7, "unit": "%"}, {"measurement": "viability, T/C", "setting": "[10]", "result": 37.1, "unit": "%"}, {"measurement": "viability, T/C", "setting": "[11]", "result": 23.6, "unit": "%"}, {"measurement": "viability, T/C", "setting": "[12]", "result": 19.9, "unit": "%"}, {"measurement": "viability, T/C", "setting": "[13]", "result": 104, "unit": "%"}, {"measurement": "viability, T/C", "setting": "[14]", "result": 89.6, "unit": "%"}, {"measurement": "viability, T/C", "setting": "[15]", "result": 56.9, "unit": "%"}, {"measurement": "viability, T/C", "setting": "[16]", "result": 35.1, "unit": "%"}, {"measurement": "viability, T/C", "setting": "[17]", "result": 23.1, "unit": "%"}, {"measurement": "viability, T/C", "setting": "[18]", "result": 18.5, "unit": "%"}, {"measurement": "viability, T/C", "setting": "[19]", "result": 98.4, "unit": "%"}, {"measurement": "viability, T/C", "setting": "[20]", "result": 77.4, "unit": "%"}, {"measurement": "viability, T/C", "setting": "[21]", "result": 51.4, "unit": "%"}, {"measurement": "viability, T/C", "setting": "[22]", "result": 31.3, "unit": "%"}, {"measurement": "viability, T/C", "setting": "[23]", "result": 21.3, "unit": "%"}, {"measurement": "viability, T/C", "setting": "[24]", "result": 15.7, "unit": "%"}, {"measurement": "viability, T/C", "setting": "second compound 3.16 µM, first compound 0.0316 µM", "result": 79.3, "unit": "%"}, {"measurement": "viability, T/C", "setting": "second compound 3.16 µM, first compound 0.1 µM", "result": 61.2, "unit": "%"}, {"measurement": "viability, T/C", "setting": "second compound 3.16 µM, first compound 0.316 µM", "result": 36, "unit": "%"}, {"measurement": "viability, T/C", "setting": "second compound 3.16 µM, first compound 1 µM", "result": 21.8, "unit": "%"}, {"measurement": "viability, T/C", "setting": "second compound 3.16 µM, first compound 3.16 µM", "result": 14.9, "unit": "%"}, {"measurement": "viability, T/C", "setting": "second compound 3.16 µM, first compound 10 µM", "result": 13, "unit": "%"}, {"measurement": "viability, T/C", "setting": "second compound 10 µM, first compound 0.0316 µM", "result": 51.3, "unit": "%"}, {"measurement": "viability, T/C", "setting": "second compound 10 µM, first compound 0.1 µM", "result": 39.2, "unit": "%"}, {"measurement": "viability, T/C", "setting": "second compound 10 µM, first compound 0.316 µM", "result": 27.9, "unit": "%"}, {"measurement": "viability, T/C", "setting": "second compound 10 µM, first compound 1 µM", "result": 15, "unit": "%"}, {"measurement": "viability, T/C", "setting": "second compound 10 µM, first compound 3.16 µM", "result": 10.6, "unit": "%"}, {"measurement": "viability, T/C", "setting": "second compound 10 µM, first compound 10 µM", "result": 6.93, "unit": "%"}]}
{"smiles": "C[C@@H](NC(=O)c1ncnc(N)c1Cl)c1ncc(C(=O)Nc2cc(C(F)(F)F)c(Cl)cn2)s1", "note": "+ COc1c(OCCCN2CCOCC2)ccc2c3n(c(=NC(=O)c4cnc(N)nc4)nc12)CCN3", "values": [{"measurement": "IC50", "setting": "second compound 0.00316 µM", "result": 2360, "unit": "nM"}, {"measurement": "IC50", "setting": "second compound 0.01 µM", "result": 234, "unit": "nM"}, {"measurement": "IC50", "setting": "second compound 0.0316 µM", "result": "< 31.6", "unit": "nM"}, {"measurement": "IC50", "setting": "second compound 0.1 µM", "result": "< 31.6", "unit": "nM"}, {"measurement": "IC50", "setting": "second compound 0.316 µM", "result": "< 31.6", "unit": "nM"}, {"measurement": "IC50", "setting": "second compound 1 µM", "result": "< 31.6", "unit": "nM"}, {"measurement": "viability, T/C", "setting": "second compound 0.00316 µM, first compound 0.0316 µM", "result": 62.5, "unit": "%"}, {"measurement": "viability, T/C", "setting": "second compound 0.00316 µM, first compound 0.1 µM", "result": 78.9, "unit": "%"}, {"measurement": "viability, T/C", "setting": "second compound 0.00316 µM, first compound 0.316 µM", "result": 67.5, "unit": "%"}, {"measurement": "viability, T/C", "setting": "second compound 0.00316 µM, first compound 1 µM", "result": 62.2, "unit": "%"}, {"measurement": "viability, T/C", "setting": "second compound 0.00316 µM, first compound 3.16 µM", "result": 45.9, "unit": "%"}, {"measurement": "viability, T/C", "setting": "second compound 0.00316 µM, first compound 10 µM", "result": 27.2, "unit": "%"}, {"measurement": "viability, T/C", "setting": "second compound 0.01 µM, first compound 0.0316 µM", "result": 50.9, "unit": "%"}, {"measurement": "viability, T/C", "setting": "second compound 0.01 µM, first compound 0.1 µM", "result": 49.9, "unit": "%"}, {"measurement": "viability, T/C", "setting": "second compound 0.01 µM, first compound 0.316 µM", "result": 51.3, "unit": "%"}, {"measurement": "viability, T/C", "setting": "second compound 0.01 µM, first compound 1 µM", "result": 43.4, "unit": "%"}, {"measurement": "viability, T/C", "setting": "second compound 0.01 µM, first compound 3.16 µM", "result": 29.9, "unit": "%"}, {"measurement": "viability, T/C", "setting": "second compound 0.01 µM, first compound 10 µM", "result": 17.9, "unit": "%"}, {"measurement": "viability, T/C", "setting": "[1]", "result": 27.5, "unit": "%"}, {"measurement": "viability, T/C", "setting": "[2]", "result": 26.9, "unit": "%"}, {"measurement": "viability, T/C", "setting": "[3]", "result": 26, "unit": "%"}, {"measurement": "viability, T/C", "setting": "[4]", "result": 20.8, "unit": "%"}, {"measurement": "viability, T/C", "setting": "[5]", "result": 16, "unit": "%"}, {"measurement": "viability, T/C", "setting": "[6]", "result": 7.51, "unit": "%"}, {"measurement": "viability, T/C", "setting": "[7]", "result": 9.3, "unit": "%"}, {"measurement": "viability, T/C", "setting": "[8]", "result": 8.92, "unit": "%"}, {"measurement": "viability, T/C", "setting": "[9]", "result": 5.88, "unit": "%"}, {"measurement": "viability, T/C", "setting": "[10]", "result": 7.2, "unit": "%"}, {"measurement": "viability, T/C", "setting": "[11]", "result": 4.61, "unit": "%"}, {"measurement": "viability, T/C", "setting": "[12]", "result": 2.13, "unit": "%"}, {"measurement": "viability, T/C", "setting": "[13]", "result": 2.53, "unit": "%"}, {"measurement": "viability, T/C", "setting": "[14]", "result": 2.04, "unit": "%"}, {"measurement": "viability, T/C", "setting": "[15]", "result": 2.28, "unit": "%"}, {"measurement": "viability, T/C", "setting": "[16]", "result": 2.25, "unit": "%"}, {"measurement": "viability, T/C", "setting": "[17]", "result": 1.53, "unit": "%"}, {"measurement": "viability, T/C", "setting": "[18]", "result": 1.06, "unit": "%"}, {"measurement": "viability, T/C", "setting": "[19]", "result": 1.22, "unit": "%"}, {"measurement": "viability, T/C", "setting": "[20]", "result": 1.54, "unit": "%"}, {"measurement": "viability, T/C", "setting": "[21]", "result": 1.62, "unit": "%"}, {"measurement": "viability, T/C", "setting": "[22]", "result": 1.3, "unit": "%"}, {"measurement": "viability, T/C", "setting": "[23]", "result": 0.85, "unit": "%"}, {"measurement": "viability, T/C", "setting": "[24]", "result": 1.04, "unit": "%"}]}
